Reference: paper PMC10165945 (Journal of medicinal chemistry, 2013)
Entries after “also recorded” stand apart in the source; their conditions may differ. Values belong to the compound of their own block, whether it stands above or below them.

Tests used:
recombinant human IDE [1] = biological target: T1, recombinant human IDE (Homo sapiens, UniProt P14735); test: IDE activity assay, degradation of fluorogenic peptide substrate FRET1; type: biochemical; settings: for activity against IDE in words: FRET1 assay; for Ki: n = 3
[2] = tested on: neprilysin (NEP), endothelin-converting enzyme-1 (ECE1), ACE, and MMP-2 and -7; test: Zinc-metalloprotease selectivity panel versus IDE, common substrate OmniMMP; type: biochemical
recombinant human IDE [3] = biological target: T1, recombinant human IDE; settings: cited from earlier work
recombinant human IDE [4] = biological target: T1, recombinant human IDE; settings: cited from earlier work; remark: listed apart in the source
recombinant human IDE [5] = biological target: T1, recombinant human IDE; settings: cited from earlier work; remark: listed apart in the source
MMP7 = biological target: T2, MMP7 (Homo sapiens, UniProt P09237); test: Zinc-metalloprotease selectivity dose-response, common substrate OmniMMP: MMP7; type: biochemical; settings: Figure 3 dose-response curves
T2 sequence (P09237 95-267): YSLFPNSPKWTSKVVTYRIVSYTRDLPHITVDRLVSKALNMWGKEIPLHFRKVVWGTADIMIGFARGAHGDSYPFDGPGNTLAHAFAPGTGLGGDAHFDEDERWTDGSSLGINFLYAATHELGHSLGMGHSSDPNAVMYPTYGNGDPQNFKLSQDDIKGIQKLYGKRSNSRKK

recombinant human IDE [6] = biological target: T1, recombinant human IDE; test: IDE activity assay, insulin degradation; type: biochemical
recombinant human IDE [7] = biological target: T1, recombinant human IDE; test: IDE activity assay, Aß degradation; type: biochemical

T1 sequence (P14735 whole entry): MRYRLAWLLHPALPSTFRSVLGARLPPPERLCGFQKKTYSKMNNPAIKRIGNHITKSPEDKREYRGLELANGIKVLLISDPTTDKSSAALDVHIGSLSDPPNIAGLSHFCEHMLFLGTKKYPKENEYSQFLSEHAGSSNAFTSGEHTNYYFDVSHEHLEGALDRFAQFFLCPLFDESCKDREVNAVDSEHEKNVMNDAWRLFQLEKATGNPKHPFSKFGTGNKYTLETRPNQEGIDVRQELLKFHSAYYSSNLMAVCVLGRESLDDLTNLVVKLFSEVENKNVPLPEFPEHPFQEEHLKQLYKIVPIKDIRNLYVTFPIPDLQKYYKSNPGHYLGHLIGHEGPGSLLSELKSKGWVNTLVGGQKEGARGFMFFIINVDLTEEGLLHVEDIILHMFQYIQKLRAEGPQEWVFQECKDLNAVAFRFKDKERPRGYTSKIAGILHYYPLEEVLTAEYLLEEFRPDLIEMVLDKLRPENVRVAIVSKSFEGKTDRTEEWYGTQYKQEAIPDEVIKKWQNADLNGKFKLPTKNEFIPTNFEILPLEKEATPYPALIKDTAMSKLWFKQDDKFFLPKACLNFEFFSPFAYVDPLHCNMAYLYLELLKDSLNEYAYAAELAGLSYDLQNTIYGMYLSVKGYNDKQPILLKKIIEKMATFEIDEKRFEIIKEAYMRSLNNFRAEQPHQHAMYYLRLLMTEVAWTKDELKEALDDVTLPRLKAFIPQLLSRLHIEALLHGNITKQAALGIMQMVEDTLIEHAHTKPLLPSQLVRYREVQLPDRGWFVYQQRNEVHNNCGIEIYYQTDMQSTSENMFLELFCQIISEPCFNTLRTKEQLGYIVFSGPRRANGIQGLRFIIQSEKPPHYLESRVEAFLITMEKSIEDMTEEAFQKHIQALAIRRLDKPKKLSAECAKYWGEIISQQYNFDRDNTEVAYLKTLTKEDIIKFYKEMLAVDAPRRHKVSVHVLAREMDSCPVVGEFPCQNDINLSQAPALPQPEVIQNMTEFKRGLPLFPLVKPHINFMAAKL

activity against IDE in words (recombinant human IDE [1]): inactive
Compound: N=C(N)NCCC[C@H](NC(=O)C(CC(=O)NO)Cc1ccc2ccccc2c1)C(N)=O (stereo in doubt) [inhibitor 9b, (R)-N^1-((S)-1-amino-5-guanidino-1-oxopentan-2-yl)-N^4-hydroxy-2-(naphthalen-2-ylmethyl)succinamide]

fold more potent than the parent amide, 9a (recombinant human IDE [1]; ki, FRET1): ~ 13 fold | fold more potent against IDE vis-à-vis the other proteases tested ([2]; OmniMMP substrate): > 100 fold
Compound: C=CCOC(=O)[C@H](CCCNC(=N)N)NC(=O)C(CC(=O)NO)Cc1ccc2ccccc2c1 (stereo in doubt) [inhibitor 14a, (S)-Allyl5-guanidino-2-((S)-4-(hydroxyamino)-2-(naphthalen-2-ylmethyl)-4-oxobutanamido)pentanoate]

Compound: Nc1ncnc2c1ncn2[C@@H]1O[C@H](COP(=O)(O)OP(=O)(O)OP(=O)(O)O)[C@@H](O)[C@H]1O [ATP]
effect on degradation of Aß by IDE (recombinant human IDE [3]): inhibits | effect on degradation of insulin by IDE (recombinant human IDE [4]): inhibits | effect on degradation of FRET1 by IDE (recombinant human IDE [5]): profoundly activates

Compound: N=C(N)NCCC[C@H](NC(=O)[C@@H](CC(=O)NO)Cc1ccc2ccccc2c1)C(=O)N[C@@H](Cc1c[nH]c2ccccc12)C(=O)N[C@@H](CCC(=O)O)C(N)=O [inhibitor 1a]
MMP7 inhibition in words (MMP7): rather potently inhibited

Compound: N=C(N)NCCC[C@@H](NC(=O)[C@@H](Cc1c[nH]c2ccccc12)NC(=O)[C@H](N)CCC(=O)O)C(=O)N[C@@H](CC(=O)NO)Cc1ccc2ccccc2c1 [inhibitor 15, Glu-Trp-Arg-2Nap-Hx]
fold higher ki^app for insulin degradation relative to FRET1 (recombinant human IDE [6]; derived from Table 5): > 60 fold

Compound: CC(=O)N[C@H](CCC(=O)NCCNc1cccc2c(S(=O)(=O)O)cccc12)C(=O)N[C@H](Cc1ccc(O)cc1)C(=O)N[C@H](Cc1ccc(C(=O)c2ccccc2)cc1)C(=O)N[C@@H](CC(=O)NO)Cc1ccc2ccccc2c1 [inhibitor 17, Ac-Glu(EDANS)-Tyr-Bpa-2Nap-Hx]
fold lower ki^app for Aß degradation relative to insulin degradation (recombinant human IDE [7]; derived from Table 5): ~ 300 fold | fold lower ki^app for Aß degradation relative to ki for FRET1 degradation (recombinant human IDE [7]; derived from Table 5): > 30 fold

Compound: (2R,3S)-N^1-((S)-1-Amino-5-guanidino-1-oxopentan-2-yl)-N^4,3-dihydroxy-2-(naphthalen-2-ylmethyl)succinamide [inhibitor 12a]
activity against IDE in words (recombinant human IDE [1]): abolish activity; also recorded: substantial decreases in potency

Compound: (2S,3R)-N^1-((S)-1-amino-5-guanidino-1-oxopentan-2-yl)-N^4,3-dihydroxy-2-(naphthalen-2-ylmethyl)succinamide [inhibitor 12b]
activity against IDE in words (recombinant human IDE [1]): abolish activity; also recorded: substantial decreases in potency

Compound: (S)-5-Amino-4-((S)-2-((S)-5-guanidino-2-((2S,3R)-3-hydroxy-4-(hydroxyamino)-2-(naphthalen-2-ylmethyl)-4-oxobutanamido)pentanamido)-3-(1H-indol-2-yl)propanamido)-5-oxopentanoic acid [inhibitor 8b]
Ki (recombinant human IDE [1]; read-out: ki (nM) (FRET1), Table 1, FRET1 5 μM, 22 °C): 103 ± 6.9 nM | Ki (recombinant human IDE [1]; read-out: ki, nM (FRET1), Table 2, truncation, FRET1 5 μM): 103 ± 7 nM | Ki (recombinant human IDE [1]; read-out: ki^app, nM FRET1, Table 5, substrate FRET1 5 μM): 103 ± 7 nM | inhibition of the other proteases tested, in words ([2]; concentrations up to 10 μM): no or only partial inhibition | Ki (recombinant human IDE [7]; read-out: ki^app, nM FAßB, Table 5, substrate Aß 200 nM, n = 3): 927 ± 120 nM | Ki (recombinant human IDE [6]; read-out: ki^app, nM Insulin, Table 5, substrate insulin 2 nM, n = 3): 1890 ± 410 nM
